Structures can show the parent of a compound that is named as a salt.
Legend:
Assay type in all cases: biochemical
[1] = ABTS radical cation scavenging (decolorization) assay; settings: mean ± SEM, n = 3; for IC50: 1 h, read-out: ABTS IC50 (compound concentration required for 50% reduction of the ABTS radical-cation) (converted); for ABTS TEAC (Trolox equivalent antioxidant capacity): 1 h incubation, relative to Trolox
Description: The ABTS assay is based on the direct quenching of the ABTS cation radical (ABTS^•+) by antioxidants. The assay is carried out by spectrophotometric determination of a decrease in absorbance of a stable dark green ABTS^•+ solution after its interaction with an antioxidant compound [56]. The measurements were performed as previously described in detail. The results are expressed as TEAC values (Trolox equivalent antioxidant capacity) and IC50 values (compound concentration required for 50% reduction of the ABTS radical).
Radical scavenging activity of the compounds was assessed using the ABTS radical cation (ABTS^•+) decolorization assay with some modifications. ABTS (2,2′-azinobis-(3-ethylbenzothiazoline-6-sulfonic acid)) was purchased from Tokyo Chemical Industry Co., Ltd. (Tokyo, Japan), and potassium persulfate (dipotassium peroxodisulfate), Trolox (6-hydroxy-2,5,7,8-tetramethylchroman-2-carboxylic acid), and HPLC-grade ethanol and DMSO were obtained from Sigma-Aldrich (Saint Louis, MO, USA). Aqueous solutions were prepared using deionized water. All test compounds were dissolved in DMSO.
The solution of cation radical ABTS^•+ was produced by incubation of an aqueous solution of 7 mM ABTS and 2.45 mM potassium persulfate solution in equal quantities for 12–16 h at room temperature in the dark. Radical scavenging capacity of the compounds was analyzed by mixing 10 μL of compound with 240 μL of ABTS^•+ working solution in ethanol (100 μM final concentration). Data were given for 1 h of incubation of compounds with ABTS^•+. The reduction in absorbance was measured spectrophotometrically at 734 nm using an xMark microplate UV/VIS microplate spectrophotometer (Bio-Rad, Hercules, CA, USA).
Ethanol blanks were run in each assay. Values were obtained from three replicates of each sample and three independent experiments.
Standard antioxidant Trolox was used as a reference compound. Antioxidant capacity as Trolox equivalent (TEAC) values was determined as the ratio between the slopes obtained from the linear correlation of the ABTS radical absorbance with the concentrations of tested compounds and Trolox. Quercetin was used as a positive control. For the test compounds that reduced ABTS^•+ absorbance by more than 60% at 100 µM, we also determined the IC50 values (the compound concentration required for a 50% reduction of the ABTS radical). The compounds were tested in the concentration range of 0.5–400 µM.

[2] = FRAP (ferric reducing antioxidant power) assay; settings: for FRAP TE (Trolox equivalent): mean ± SEM, n = 3, 1 h, 37 °C, pH 3.6
Description: The FRAP (ferric reducing antioxidant power) assay measures the ability of antioxidants to reduce the ferric 2,4,6-tripyridyl-s-triazine complex [Fe(TPTZ)2]^3+ to the intensely blue ferrous complex [Fe(TPTZ)2]^2+ in an acidic medium. The measurements were performed as previously described in detail. The results are expressed as TE (Trolox equivalents).
The FRAP (ferric reducing antioxidant power) assay measures the ability of antioxidants to reduce the ferric 2,4,6-tripyridyl-s-triazine complex [Fe (TPTZ)2]^3+ to the intensely blue ferrous complex [Fe (TPTZ)2]^2+ (λ = 593 nm) in acidic medium. 2,4,6-Tris(pyridin-2-yl)-1,3,5-triazine (TPTZ), FeCl3·6H2O, Trolox, quercetin and DMSO were obtained from Sigma-Aldrich Chemical Co. (St. Louis, MO, USA). The FRAP reagent contained 2.5 mL of 10 mM TPTZ solution in 40 mM HCl, 2.5 mL of 20 mM FeCl3·6H2O water solution, and 25 mL of 0.3 M acetate buffer (pH 3.6). Aliquots of 10 µL of the test compound solution in DMSO (0.5 mM) were mixed with 240 µL of FRAP reagent, and the absorbance of the mixture was measured spectrophotometrically (FLUOStar OPTIMA microplate spectrophotometer (BMG Labtech, Ortenberg, Germany)) at 600 nm after 1 h incubation at 37 °C against a blank. Trolox was used as a reference compound. Quercetin was used as a positive control. A calibration curve with linear formula y = 0.03x (R^2 = 0.998, p < 0.0001) was prepared for Trolox solutions in DMSO at a range of 2.5–100 µM, and the results are expressed as Trolox equivalents (TE), the values calculated as the ratio of the concentrations of Trolox and the test compound, resulting in the same effect.

[3] = target: T1, equine serum butyrylcholinesterase (BChE) (Equus caballus, UniProt P81908); test: Inhibition of BChE (Ellman's colorimetric assay); settings: ± SEM, n = 3, 10 min incubation 25 °C
T1 construct: equine serum butyrylcholinesterase (BChE, EC 3.1.1.8); purchased Sigma-Aldrich (Saint Louis, MO, USA); host or cells: equine serum
Description: Given the available literature data on the ability of pyrazole derivatives to inhibit acetylcholinesterase (AChE) and human carboxylesterase-1 (CES), we performed an investigation of the esterase profile for new compounds 1a–j and 4a–j, including an evaluation of their inhibitory effect on the standard enzymes set: human erythrocyte AChE, equine serum butyrylcholinesterase (BChE), and porcine liver CES (Table 2). The applicability of this set of enzymes was shown by us earlier.
Human erythrocyte acetylcholinesterase (AChE, EC 3.1.1.7), equine serum butyrylcholinesterase (BChE, EC 3.1.1.8), porcine liver carboxylesterase (CES, EC 3.1.1.1), acetylthiocholine iodide (ATCh), butyrylthiocholine iodide (BTCh), 4-nitrophenol acetate (4-NPA), and 5,5′-dithio-bis-(2-nitrobenzoic acid) (DTNB) were purchased from Sigma-Aldrich (Saint Louis, MO, USA).
All the kinetic experiments were performed under standard conditions, according to the protocol of IPAC RAS for a reversible inhibitors study.
Ellman’s colorimetric assay was used to measure AChE and BChE activity in 0.1 M K/Na phosphate buffer at pH 7.5, 25 °C [86]. Final concentrations of reactants were 0.33 mM DTNB, 0.02 unit/mL of AChE or BChE, and 1 mM of substrate (ATCh or BTCh, respectively). Reagent blanks consisted of reaction mixtures without enzyme to assess non-enzymatic hydrolysis of substrates. Porcine liver CES activity was assessed colorimetrically in 0.1 M K/Na phosphate buffer with pH 8.0 at 25 °C, by measuring the absorbance of 4-nitrophenol at 405 nm. Final enzyme and substrate (4-NPA) concentrations were 0.02 unit/mL and 1 mM, respectively. Reagent blanks included all constituents except enzyme.
Test compounds were dissolved in DMSO. Reaction mixtures contained a final DMSO concentration of 2% (v/v). Enzyme inhibition was first assessed at a single concentration of 20 µM for each compound after a 10 min incubation at 25 °C in three separate experiments. Compounds inhibiting the enzyme by more than 30% were then selected for determination of the IC50 (inhibitor concentration resulting in 50% inhibition of control enzyme activity). […] Substrate was then added, and residual enzyme activity relative to an inhibitor-free control was measured using a FLUOStar Optima microplate reader (LabTech, Ortenberg, Germany).

T1 sequence (P81908 whole entry): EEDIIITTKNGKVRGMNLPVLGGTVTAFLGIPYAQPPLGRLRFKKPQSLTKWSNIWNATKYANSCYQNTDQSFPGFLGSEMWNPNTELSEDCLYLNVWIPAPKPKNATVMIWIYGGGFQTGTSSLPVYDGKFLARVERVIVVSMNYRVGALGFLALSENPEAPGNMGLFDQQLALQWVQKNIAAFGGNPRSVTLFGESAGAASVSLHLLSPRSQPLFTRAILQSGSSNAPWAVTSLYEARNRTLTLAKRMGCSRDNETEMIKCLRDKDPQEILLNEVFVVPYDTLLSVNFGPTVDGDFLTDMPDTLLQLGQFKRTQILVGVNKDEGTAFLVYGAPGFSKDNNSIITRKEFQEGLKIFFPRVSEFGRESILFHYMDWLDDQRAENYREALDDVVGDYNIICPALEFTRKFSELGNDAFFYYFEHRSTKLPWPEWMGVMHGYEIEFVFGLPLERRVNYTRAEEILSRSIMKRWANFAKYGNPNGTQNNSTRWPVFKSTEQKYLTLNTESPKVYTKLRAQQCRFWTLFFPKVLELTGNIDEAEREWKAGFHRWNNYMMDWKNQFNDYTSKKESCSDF

Question: Which results are given for “3-methyl-1-phenyl-2-pyrazolin-5-one [EDA, reference compound]”?
Answer: IC50 [1]: 21.4 µM; ABTS TEAC (Trolox equivalent antioxidant capacity) [1]: 0.96 ± 0.04 TEAC; FRAP TE (Trolox equivalent) [2]: 0.80 ± 0.01 TE; BChE % inhibition at 20 μM [3]: 4.6 ± 0.2%

Question: What does the source list for O=C1NN=C(C(F)(F)F)/C1=N/O [1e]?
Answer: ABTS TEAC (Trolox equivalent antioxidant capacity) [1]: 0.23 ± 0.01 (n.d.) TEAC; FRAP TE (Trolox equivalent) [2]: 0.07 ± 0.01 TE

Question: Which “ABTS TEAC (Trolox equivalent antioxidant capacity)” value (shortened to “ABTS TEAC”) [1] does the source give for O=C1NN=C(C(F)(F)C(F)(F)F)/C1=N/O [1g] here?
Answer: 0.13 ± 0.04 (n.d.) TEAC

Question: And the “FRAP TE (Trolox equivalent)” value [2]?
Answer: 0.13 ± 0.01 TE

Question: With CC1=NNC(=O)/C1=N\O [1j] as the compound, how does the “ABTS TEAC” value [1] read?
Answer: 0.2 ± 0.03 (n.d.) TEAC

Question: And the “FRAP TE (Trolox equivalent)” value [2]?
Answer: 0.09 ± 0.01 TE

Question: What about the inhibition at 20 µM [3] of the same compound?
Answer: 3.8 ± 1.3%

Question: What does the source list for Cl.Nc1c(C(F)(F)F)nn(-c2ccccc2)c1O [4a, 4-Amino-3-(trifluoromethyl)-1-phenyl-1H-pyrazol-5-ol hydrochloride]?
Answer: IC50 [1]: 27.2 µM; ABTS TEAC (Trolox equivalent antioxidant capacity) [1]: 0.75 ± 0.04 TEAC; FRAP TE (Trolox equivalent) [2]: 0.89 ± 0.05 TE; inhibition at 20 µM [3]: 6.9 ± 1.1%

Question: For Cl.Nc1c(C(F)(F)C(F)(F)F)nn(-c2ccccc2)c1O.O [4b, 4-Amino-3-(pentafluoroethyl)-1-phenyl-1H-pyrazol-5-ol hydrate hydrochloride], which IC50 [1] is on record?
Answer: 34.1 µM

Question: What about the “ABTS TEAC” value [1] of the same compound?
Answer: 0.6 ± 0.03 TEAC

Question: What about the “FRAP TE (Trolox equivalent)” value [2] of the same compound?
Answer: 0.75 ± 0.07 TE

Question: What about the inhibition at 20 µM [3] of the same compound?
Answer: 12.8 ± 1.5%

Question: For Nc1c(C(F)(F)C(F)(F)C(F)(F)C(F)(F)F)nn(-c2ccccc2)c1O [4c, 5-Hydroxy-1-phenyl-3-(nonafluorobuthyl)-1H-pyrazol-4-ammonium hydrochloride], which IC50 [1] is on record?
Answer: 23.4 µM

Question: And the “ABTS TEAC” value [1]?
Answer: 0.85 ± 0.04 TEAC

Question: And the “FRAP TE (Trolox equivalent)” value [2]?
Answer: 0.98 ±0.05 TE

Question: What about the inhibition at 20 µM [3] of the same compound?
Answer: 10.3 ± 1.2%

Question: Which IC50 [1] does the source give for Cc1nn(-c2ccccc2)c(O)c1N.Cl.O [4d, 4-Amino-3-methyl-1-phenyl-1H-pyrazol-5-ol hydrochloride hydrate] here?
Answer: 23.3 µM

Question: What about the “ABTS TEAC” value [1] of the same compound?
Answer: 0.93 ± 0.03 TEAC

Question: What about the “ABTS TEAC” value ([1]; listed as APH) of the same compound?
Answer: 0.93 TEAC

Question: And the “FRAP TE (Trolox equivalent)” value [2]?
Answer: 0.98 ± 0.08 TE

Question: And the “FRAP TE (Trolox equivalent)” value ([2]; listed as APH)?
Answer: 0.98 TE

Question: What about the inhibition at 20 µM [3] of the same compound?
Answer: 5.1 ± 1.3%

Question: What does the source list for Cl.Nc1c(C(F)(F)F)n[nH]c1O [4e, 4-Amino-3-(trifluoromethyl)-1H-pyrazol-5-ol hydrochloride]?
Answer: IC50 [1]: 21.2 µM; ABTS TEAC (Trolox equivalent antioxidant capacity) [1]: 0.92 ± 0.04 TEAC; FRAP TE (Trolox equivalent) [2]: 1.02 ± 0.02 TE; inhibition at 20 µM [3]: 5.6 ± 1.5%

Question: Which IC50 [1] does the source give for Cl.Nc1c(C(F)(F)C(F)(F)F)n[nH]c1O.O [4g, 4-Amino-3-(pentafluoroethyl)-1H-pyrazol-5-ol hydrate hydrochloride] here?
Answer: 25.7 µM

Question: And the “ABTS TEAC” value [1]?
Answer: 0.73 ± 0.03 TEAC

Question: What about the “FRAP TE (Trolox equivalent)” value [2] of the same compound?
Answer: 0.88 ± 0.04 TE

Question: What about the inhibition at 20 µM [3] of the same compound?
Answer: 8.9 ± 1.4%

Question: Which results are given for Cl.Nc1c(C(F)(F)C(F)(F)C(F)(F)F)n[nH]c1O.O [4h, 4-Amino-3-(heptafluoropropyl)-1H-pyrazol-5-ol hydrate hydrochloride]?
Answer: IC50 [1]: 24.8 µM; ABTS TEAC (Trolox equivalent antioxidant capacity) [1]: 0.78 ± 0.04 TEAC; FRAP TE (Trolox equivalent) [2]: 1.03 ± 0.04 TE; inhibition at 20 µM [3]: 3.4 ± 0.9%

Question: For Cl.Nc1c(C(F)(F)C(F)(F)C(F)(F)C(F)(F)F)n[nH]c1O.O [4i, 4-Amino-3-(nonafluorobutyl)-1H-pyrazol-5-ol hydrate hydrochloride], which IC50 [1] is on record?
Answer: 40.8 µM

Question: And the “ABTS TEAC” value [1]?
Answer: 0.45 ± 0.02 TEAC

Question: And the “FRAP TE (Trolox equivalent)” value [2]?
Answer: 0.75 ± 0.05 TE

Question: Which IC50 [1] does the source give for Cc1n[nH]c(O)c1N.Cl [4j, 4-Amino-3-methyl-1H-pyrazol-5-ol hydrochloride] here?
Answer: 20.1 µM

Question: What about the “ABTS TEAC” value [1] of the same compound?
Answer: 0.95 ± 0.04 TEAC

Question: And the “FRAP TE (Trolox equivalent)” value [2]?
Answer: 1.04 ± 0.04 TE

Question: And the inhibition at 20 µM [3]?
Answer: 13.9 ± 1.6%

Question: Which IC50 [1] does the source give for Oc1cc(C(F)(F)F)nn1-c1ccccc1 [CF3-EDA, 3-trifluoromethyl-1-phenylpyrazol-5-ol, reference compound] here?
Answer: 21.4 µM

Question: And the “ABTS TEAC” value [1]?
Answer: 0.95 ± 0.04 TEAC

Question: What about the “Ferric reducing activity lower than that of EDA” value ([2]; FRAP test, relative to EDA) of the same compound?
Answer: 20%

Question: What about the “FRAP TE (Trolox equivalent)” value [2] of the same compound?
Answer: 0.63 ± 0.03 TE

Source: article PMC9699072 (Molecules, 2022)
